The test system of this experiment is T1, AcAAT4.
T1 construct: pET32a-His fusion, expressed in E. coli BL21, Ni-NTA purified; tag cleavage not mentioned
The experiment is described as follows: GC-MS of SPME-collected (Z)-3-hexenyl acetate, varied (Z)-3-hexenol. In kind it is biochemical, Acacia confusa. To be noted: acetyl-CoA co-substrate; 50 mM Tris-HCl pH 7.4 in methods (text: optimal conditions pH 7.5-8); 30 °C.

For the compound `CC/C=C\CCO` [(Z)-3-hexenol], the Km worked out at 54.6 µM.

In general, Km refers to the concentration of substrate that gives half-maximal velocity.

The values are drawn from publication PMC12330005, “Mechanism mediating the biosynthesis of the anti-insect volatile (Z)-3-hexenyl acetate in Acacia confusa Merr., an intercropping plant in tea plantations” (Molecular Horticulture, 2025).
